# Reference: patent publication US6451832B2, “Benzimidazoles with antithrombotic activity” (Boehringer Ingelheim Pharma KG, priority 1999, dated 2002)
# How the values were obtained:
# [1] = Oral resorption of prodrugs
# human citrated plasma = assay: Prolongation of the aPTT time in human citrated plasma (Biomatic B10 coagulometer); type: biochemical; settings: concentration at which the aPTT time is doubled compared with the control, 37° C.
# Procedure: were investigated as follows for their effects on prolonging the aPTT time:
# Materials: plasma, from human citrated blood. PTT reagent, Boehringer Mannheim (524298), Calcium solution (0.025 mol/l), Behring Werke, Marburg (ORH 056/57), Diethylbarbiturate acetate buffer, Behring Werke, Marburg (ORWH 60/61), Biomatic B10 coagulometer, Desaga, Wiesloch.
# The aPTT time was determined using a Biomatic B10 coagulometer made by Messrs. Desaga.
# The test substance was placed in the test tubes prescribed by the manufacturer together with 0.1 ml of human citrated plasma and 0.1 ml of PTT reagent. The mixture was incubated for three minutes at 37° C. The clotting reaction was started by the addition of 0.1 ml of calcium solution. The time is measured using the apparatus from the addition of the calcium solution up to the clotting of the mixture. Mixtures to which 0.1 ml of DBA buffer were added were used as the controls.
# According to the definition, a dosage-activity curve was used to determine the effective concentration of the substance, i.e. the concentration at which the aPTT time is doubled compared with the control.
oral resorption [1],SMILES,aPTT time (ED200 in μM) (human citrated plasma)
good oral resorption,"CCCOC(=O)CN[C@@](C)(C(=O)N1CCCC1)c1ccc2c(c1)nc(CNc1ccc(C(=N)NC(=O)c3ccccc3)cc1)n2C [3(2), (R)-2-[4-(N-phenylcarbonylamidino)-phenylaminomethyl]-1-methyl-5-[1-(n-propyloxycarbonylmethylamino)-1-(pyrrolidinocarbonyl)-ethyl]-benzimidazole]",
,"CCOC(=O)CNC(C)(C(=O)N1CC=CC1)c1ccc2c(c1)nc(CNc1ccc(C(=N)N)cc1)n2C.Cl.Cl (centres unmarked) [A, 2-(4-amidinophenylaminomethyl)-1-methyl-5-[1-(ethoxycarbonylmethylamino)-1-(2,5-dihydropyrrolocarbonyl)-ethyl]-benzimidazole-dihydrochloride]",0.13 µM
,"C[C@@H]1CCCN1C(=O)[C@](C)(NCC(=O)O)c1ccc2c(c1)nc(CNc1ccc(C(=N)N)cc1)n2C.Cl.Cl [B, (R)-2-(4-amidinophenylaminomethyl)-1-methyl-5-[1-(carboxymethylamino)-1-[(R,S)-2-methyl-pyrrolidinocarbonyl]-ethyl]-benzimidazole-dihydrochloride]",0.12 µM
,"Cl.Cl.Cn1c(CNc2ccc(C(=N)N)cc2)nc2cc(C(C)(NCC(=O)O)C(=O)N3CC=CC3)ccc21 (centres unmarked) [C, 2-(4-amidinophenylaminomethyl)-1-methyl-5-[1-(carboxymethylamino)-1-(2,5-dihydropyrrolocarbonyl)-ethyl]-benzimidazole-dihydrochloride]",0.22 µM
good oral resorption,"CCCCOC(=O)CN[C@@](C)(C(=O)N1CCCC1)c1ccc2c(c1)nc(CNc1ccc(C(=N)NC(=O)c3ccccc3)cc1)n2C [Example 2, (R)-2-[4-(N-phenylcarbonylamidino)-phenylaminomethyl]-1-methyl-5-[1-(n-butyloxycarbonylmethylamino)-1-(pyrrolidinocarbonyl)-ethyl]-benzimidazole]",
